Assay results reported in US11524966B1 (Valo Early Discovery, Inc., priority 2017, dated 2022).

biological target: T1, USP28 (His-tagged USP28-FL-mammalian) (Homo sapiens, UniProt Q96RU2); assay: Ubiquitin-Rhodamine 110 Assay for USP28 Activity, Example A-1(a); assay type: biochemical; conditions: Ub-Rh110 assay, Example A-1(a); read-out: USP28 A-1(a) IC50 range
T1 construct: Expression of USP28 (1-1077)-TEV-6*His (pTT5 vector); made in house; host or cells: Expi293f cells (pTT5 vector)
T1 sequence (Q96RU2 1-1077): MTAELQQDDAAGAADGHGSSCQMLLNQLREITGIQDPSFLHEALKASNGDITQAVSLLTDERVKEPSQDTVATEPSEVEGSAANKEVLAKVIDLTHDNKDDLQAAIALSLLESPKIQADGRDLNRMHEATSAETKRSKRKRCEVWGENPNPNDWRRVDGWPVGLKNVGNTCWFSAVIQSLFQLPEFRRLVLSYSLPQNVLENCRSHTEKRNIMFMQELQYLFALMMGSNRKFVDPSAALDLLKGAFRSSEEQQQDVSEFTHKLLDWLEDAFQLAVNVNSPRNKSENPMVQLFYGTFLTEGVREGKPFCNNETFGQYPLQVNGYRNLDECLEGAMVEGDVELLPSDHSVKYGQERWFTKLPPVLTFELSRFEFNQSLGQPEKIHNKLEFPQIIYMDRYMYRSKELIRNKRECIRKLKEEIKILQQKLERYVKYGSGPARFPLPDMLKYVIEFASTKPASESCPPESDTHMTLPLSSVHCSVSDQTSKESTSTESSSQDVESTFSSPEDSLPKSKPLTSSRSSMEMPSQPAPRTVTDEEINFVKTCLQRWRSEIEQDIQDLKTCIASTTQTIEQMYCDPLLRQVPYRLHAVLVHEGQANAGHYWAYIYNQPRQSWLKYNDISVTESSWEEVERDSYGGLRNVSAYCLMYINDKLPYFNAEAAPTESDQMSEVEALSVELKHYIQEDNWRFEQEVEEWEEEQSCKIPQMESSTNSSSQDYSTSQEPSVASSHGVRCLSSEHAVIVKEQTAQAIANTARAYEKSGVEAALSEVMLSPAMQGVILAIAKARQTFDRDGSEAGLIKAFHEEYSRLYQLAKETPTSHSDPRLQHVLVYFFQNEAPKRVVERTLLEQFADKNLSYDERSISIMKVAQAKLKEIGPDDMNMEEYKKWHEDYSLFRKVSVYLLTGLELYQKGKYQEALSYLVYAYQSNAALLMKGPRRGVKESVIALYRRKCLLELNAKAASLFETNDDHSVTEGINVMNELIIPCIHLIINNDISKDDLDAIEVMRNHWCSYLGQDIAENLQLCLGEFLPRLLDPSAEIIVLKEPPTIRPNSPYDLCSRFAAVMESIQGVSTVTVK
Method in brief: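 IC50 from 4-parameter logistic fit of percent inhibition versus no-enzyme and DMSO controls; compounds 25 μM to 1.3 nM, 3-fold. Ub-Rh110 cleavage (25 nM, below Km) by […] mammalian-expressed USP28-FL-His ran 45 min at room temperature, stopped with 10 mM citric acid, read ex 485/em 535.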

Question: For `Cc1nc2sc(C(=O)N[C@H]3COc4cc(N5CCNCC5)ccc4C3)c(N)c2s1` [Example 1-25, (R)-6-amino-2-methyl-N-(7-(piperazin-1-yl)chroman-3-yl)thieno[2,3-d]thiazole-5-carboxamide], which IC50 is on record?
Answer: 0.001 to 0.05 µM

Question: Which IC50 does the source give for `Cc1nc2sc(C(=O)N[C@@H]3COc4cc(N5CCNCC5)ccc4C3)c(N)c2s1` [Example 1-26, (S)-6-amino-2-methyl-N-(7-(piperazin-1-yl)chroman-3-yl)thieno[2,3-d]thiazole-5-carboxamide] here?
Answer: 0.2 to 2 µM

Question: How did the IC50 turn out when `Cc1ccc2c(N)c(C(=O)N[C@H]3COc4c(ccc(N5CCNCC5)c4F)C3)sc2n1` [Example 1-33, (R)-3-amino-N-(8-fluoro-7-(piperazin-1-yl)chroman-3-yl)-6-methylthieno[2,3-b]pyridine-2-carboxamide] was run?
Answer: 0.001 to 0.05 µM

Question: `Cc1ccc2c(N)c(C(=O)N[C@@H]3COc4c(ccc(N5CCNCC5)c4F)C3)sc2n1` [Example 1-34, (S)-3-amino-N-(8-fluoro-7-(piperazin-1-yl)chroman-3-yl)-6-methylthieno[2,3-b]pyridine-2-carboxamide] was tested. Which IC50 did it give?
Answer: 0.2 to 2 µM

Question: `Cc1ccc2c(N)c(C(=O)N[C@H]3COc4cc(N5CCNCC5)c(F)cc4C3)sc2n1` [Example 1-35, (R)-3-amino-N-(6-fluoro-7-(piperazin-1-yl)chroman-3-yl)-6-methylthieno[2,3-b]pyridine-2-carboxamide] was tested. Which IC50 did it give?
Answer: 0.001 to 0.05 µM

Question: Which IC50 does the source give for `Cc1ccc2c(N)c(C(=O)N[C@@H]3COc4cc(N5CCNCC5)c(F)cc4C3)sc2n1` [Example 1-36, (S)-3-amino-N-(6-fluoro-7-(piperazin-1-yl)chroman-3-yl)-6-methylthieno[2,3-b]pyridine-2-carboxamide] here?
Answer: > 2 µM

Question: For `Cc1ccc2c(N)c(C(=O)N[C@H]3COc4cc(N5CC6CNCC(C5)C6(F)F)ccc4C3)sc2n1` [Example 2-1, 3-Amino-N-((3R)-7-(9,9-difluoro-3,7-diazabicyclo[3.3.1]nonan-3-yl)chroman-3-yl)-6-methylthieno[2,3-b]pyridine-2-carboxamide], which IC50 is on record?
Answer: 0.001 to 0.05 µM

Question: How did the IC50 turn out when `Cc1ccc2c(N)c(C(=O)N[C@H]3COc4cc(N5CC6CC(C5)N6)ccc4C3)sc2n1` [Example 2-2, N-((3R)-7-(3,6-diazabicyclo[3.1.1]heptan-3-yl)chroman-3-yl)-3-amino-6-methylthieno[2,3-b]pyridine-2-carboxamide] was run?
Answer: 0.001 to 0.05 µM

Question: `Cc1ccc2c(N)c(C(=O)N[C@@H]3COc4cc(N5CC6CC(C5)N6)ccc4C3)sc2n1` [Example 2-3, N-((3S)-7-(3,6-diazabicyclo[3.1.1]heptan-3-yl)chroman-3-yl)-3-amino-6-methylthieno[2,3-b]pyridine-2-carboxamide] was tested. Which IC50 did it give?
Answer: 0.2 to 2 µM

Question: `Cc1ccc2c(N)c(C(=O)N[C@H]3COc4cc(N5CCNC[C@@H]5C)ccc4C3)sc2n1` [Example 2-4, 3-amino-6-methyl-N-((R)-7-((S)-2-methylpiperazin-1-yl)chroman-3-yl)thieno[2,3-b]pyridine-2-carboxamide] was tested. Which IC50 did it give?
Answer: 0.001 to 0.05 µM

Question: For `Cc1ccc2c(N)c(C(=O)N[C@H]3COc4cc(N5CCNC[C@H]5C)ccc4C3)sc2n1` [Example 2-5, 3-amino-6-methyl-N-((R)-7-((R)-2-methylpiperazin-1-yl)chroman-3-yl)thieno[2,3-b]pyridine-2-carboxamide], which IC50 is on record?
Answer: 0.001 to 0.05 µM

Question: Which IC50 does the source give for `Cc1ccc2c(N)c(C(=O)N[C@H]3COc4cc(N5C6CCC5CNC6)ccc4C3)sc2n1` [Example 2-6, N-((3R)-7-(3,8-diazabicyclo[3.2.1]octan-8-yl)chroman-3-yl)-3-amino-6-methylthieno[2,3-b]pyridine-2-carboxamide] here?
Answer: 0.001 to 0.05 µM

Question: With `Cc1ccc2c(N)c(C(=O)N[C@H]3COc4cc(N5CCCC56CNC6)ccc4C3)sc2n1` [Example 2-7, (R)-N-(7-(2,5-diazaspiro[3.4]octan-5-yl)chroman-3-yl)-3-amino-6-methylthieno[2,3-b]pyridine-2-carboxamide] as the compound, how does the IC50 read?
Answer: 0.001 to 0.05 µM

Question: With `Cc1ccc2c(N)c(C(=O)N[C@H]3COc4cc(N5CCN[C@@H](C)C5)ccc4C3)sc2n1` [Example 2-8, 3-amino-6-methyl-N-((R)-7-((S)-3-methylpiperazin-1-yl)chroman-3-yl)thieno[2,3-b]pyridine-2-carboxamide] as the compound, how does the IC50 read?
Answer: 0.001 to 0.05 µM
